Source: the NIST ThermoML archive (doi:10.1016/j.jct.2005.01.002)

Columns and labels:
[1] = xn = mol fraction of the nth substance listed; details: 101 kPa, Liquid
[2] = 101.33 kPa, Liquid

CC(C)OC(C)C [diisopropyl ether] + CN(C)C=O
mass density [kg/m3], [1]
Details | 298.15 K | 313.15 K | 328.15 K
x2 = 0.0551 | 726.89 | 711.08 | 694.81
x2 = 0.0998 | 733.84 | 718.04 | 701.68
x2 = 0.1567 | 742.64 | 726.81 | 710.25
x2 = 0.2133 | 751.81 | 736.08 | 719.61
x2 = 0.2581 | 759.64 | 743.93 | 727.41
x2 = 0.3049 | 767.92 | 752.25 | 735.75
x2 = 0.3548 | 777.09 | 761.49 | 744.95
x2 = 0.4003 | 785.84 | 770.29 | 753.71
x2 = 0.4401 | 793.67 | 778.18 | 761.59
x2 = 0.4868 | 803.29 | 787.92 | 771.3
x2 = 0.5049 | 807.13 | 791.8 | 775.18
x2 = 0.5285 | 812.21 | 796.95 | 780.34
x2 = 0.5548 | 818.02 | 802.83 | 786.22
x2 = 0.6182 | 832.62 | 817.65 | 801.09
x2 = 0.653 | 840.97 | 826.05 | 809.51
x2 = 0.7137 | 856.34 | 841.67 | 825.18
x2 = 0.7611 | 869.01 | 854.62 | 838.24
x2 = 0.801 | 880.32 | 866.12 | 849.8
x2 = 0.8447 | 893.01 | 879.09 | 862.93
x2 = 0.9027 | 911.02 | 897.56 | 881.59
x2 = 0.9502 | 926.7 | 913.74 | 897.98

CCOCC [diethyl ether]
Details | mass density [kg/m3]
[2], 298.15 K | 707.79

CCCCCOCCCCC [dipentyl ether]
[2]
Details | mass density [kg/m3]
298.15 K | 778.96
313.15 K | 768.65
328.15 K | 756.32
343.15 K | 743.97
358.15 K | 731.37

CN(C)C=O [dimethylformamide]
[2]
Details | mass density [kg/m3]
298.15 K | 943.85
313.15 K | 930.98
328.15 K | 915.07
343.15 K | 900.41
358.15 K | 885.68

CC(C)OC(C)C [diisopropyl ether]
[2]
Details | mass density [kg/m3]
298.15 K | 718.51
313.15 K | 702.59
328.15 K | 686.2

CCCOCCC [dipropyl ether]
[2]
Details | mass density [kg/m3]
298.15 K | 741.94
313.15 K | 727.87
328.15 K | 713.73
343.15 K | 699.61
358.15 K | 684.92

CCOCC [diethyl ether] + CN(C)C=O
[1], 298.15 K
Details | mass density [kg/m3]
x2 = 0.0575 | 720.7
x2 = 0.1033 | 730.11
x2 = 0.1606 | 742.64
x2 = 0.2076 | 752.93
x2 = 0.2524 | 762.76
x2 = 0.2979 | 772.93
x2 = 0.3683 | 788.85
x2 = 0.4058 | 797.64
x2 = 0.4414 | 805.85
x2 = 0.4932 | 818.09
x2 = 0.5094 | 821.95
x2 = 0.53 | 826.82
x2 = 0.5595 | 833.95
x2 = 0.6229 | 849.26
x2 = 0.643 | 854.21
x2 = 0.717 | 872.52
x2 = 0.7584 | 882.84
x2 = 0.8124 | 896.81
x2 = 0.8523 | 906.61
x2 = 0.9295 | 926.56
x2 = 0.9655 | 936.09
